Measured values reported in US8119645B2, “Fungicide hydroximoyl-tetrazole derivatives” (Bayer Cropscience AG, priority 2006, dated 2012).

assay: logP by reversed-phase HPLC (EEC Directive 79/831 Annex V.A8); assay type: physicochemical; conditions: not given

chromatographic logP | Structure (SMILES)
1.57 | Cn1nnnc1/C(=N/OCc1cccc(N)n1)c1csc(-c2ccccc2)n1 [Compound 174, O-(2-Aminopyridin-6-yl)methyl-(2-phenyl-1,3-thiazol-4-yl)-(1-methyltetrazol-5-yl)methanone oxime]
1.32 | Cc1nnnn1/C(=N/OCc1csc(N)n1)c1ccsc1 [Compound 20, O-(2-Amino-1,3-thiazol-4-yl)methyl-(thien-3-yl)-(5-methyltetrazol-1-yl)methanone oxime]

same assay, conditions: HPLC C18, 40° C., 0.1% aqueous formic acid / acetonitrile gradient

Structure (SMILES) | LogP
Cn1nnnc1C(=NOCc1csc(NC(=O)C2CC2)n1)c1csc(-c2ccccc2)n1 [Compound 168] | 3.85
CCCCCOC(=O)Nc1nc(CON=C(c2csc(-c3ccccc3)n2)c2nnnn2C)cs1 [Compound 167] | 4.29
CCCCCC(=O)Nc1nc(CON=C(c2ccc(Cl)s2)n2nnnc2C)cs1 [Compound 106] | 4.12
Cc1ccc(C(=NOCc2cccc(N)n2)n2nnnc2C)s1 [Compound 124] | 1.51
Cc1nnnn1C(=NOCc1csc(N)n1)c1ccc(-c2ccc(Cl)c(Cl)c2)o1 [Compound 81] | 2.83
Cc1nnnn1C(=NOCc1csc(N)n1)c1ccc(Br)s1 [Compound 86] | 2.07
Cc1nnnn1C(=NOCc1csc(NC(=O)NC(C)C)n1)c1ccsc1 [Compound 26] | 2.32
Cc1nnnn1C(=NOCc1csc(NC(=O)OCCc2ccccc2)n1)c1ccc(Cl)s1 [Compound 110] | 4.24
CCCCCCCCC(=O)Nc1nc(CON=C(c2ccsc2)n2nnnc2C)cs1 [Compound 41] | 4.51
COCCOCC(=O)Nc1nc(CON=C(c2ccsc2)n2nnnc2C)cs1 [Compound 48] | 2.28
Cc1nnnn1C(=NOCc1csc(NC(=O)C(C)C)n1)c1ccc(-c2ccccc2)o1 [Compound 134] | 3.27
Cc1ccc(C(=NOCc2cccc(NC(=O)NCCc3ccccc3)n2)n2nnnc2C)s1 [Compound 128] | 3.06
CCCCCOC(=O)Nc1cccc(CON=C(c2ccc(C)s2)n2nnnc2C)n1 [Compound 126] | 4.34
Cc1nnnn1C(=NOCc1csc(NC(=O)c2ccccc2)n1)c1ccsc1Cl [Compound 4] | 3.26
Cc1nnnn1C(=NOCc1csc(NC(=O)Cc2ccccc2)n1)c1ccsc1 [Compound 32] | 2.9
CCCCCCCCC(=O)Nc1nc(CON=C(c2cc(-c3ccccc3)c(Cl)s2)n2nnnc2C)cs1 [Compound 78] | 5.94
Cc1nnnn1C(=NOCc1csc(NC(=O)C2CCCC2)n1)c1ccsc1Cl [Compound 7] | 3.3
CCCC(=O)Nc1nc(CON=C(c2ccc(C)s2)n2nnnc2C)cs1 [Compound 114] | 2.88
Cc1ccc(C(=NOCc2csc(NC(=O)CCCc3ccccc3)n2)n2nnnc2C)s1 [Compound 121] | 3.81
COCCOC(=O)Nc1nc(CON=C(c2ccsc2)n2nnnc2C)cs1 [Compound 49] | 2.3
CCCCCCCCNC(=O)Nc1nc(CON=C(c2ccsc2)n2nnnc2C)cs1 [Compound 23] | 3.26
Cn1nnnc1C(=NOCc1cccc(NC(=O)C(C)(C)C)n1)c1csc(-c2ccccc2)n1 [Compound 176] | 3.7
CCCCCC(=O)Nc1nc(CON=C(c2ccc(-c3ccc(Cl)c(Cl)c3)o2)n2nnnc2C)cs1 [Compound 85] | 4.78
COCCOC(=O)Nc1nc(CON=C(c2ccc(Cl)s2)n2nnnc2C)cs1 [Compound 112] | 3.05
Cn1nnnc1C(=NOCc1cccc(NC(=O)Cc2ccccc2)n1)c1csc(-c2ccccc2)n1 [Compound 175] | 3.72
Cc1ccc(C(=NOCc2csc(NC(=O)Cc3ccccc3)n2)n2nnnc2C)s1 [Compound 116] | 3.35
Cc1nnnn1C(=NOCc1cccc(NC(=O)c2ccccc2)n1)c1ccsc1 [Compound 38] | 3.01

Structure (SMILES) | LogP
Cc1nnnn1C(=NOCc1csc(NC(=O)Nc2ccccc2)n1)c1ccsc1 [Compound 21] | 2.88
Cc1nnnn1C(=NOCc1csc(NC(=O)C2CCCCC2)n1)c1ccsc1 [Compound 29] | 3.32
CCCCCCCCC(=O)Nc1nc(CON=C(c2ccc(-c3ccccc3)o2)n2nnnc2C)cs1 [Compound 135] | 5.01
Cc1nnnn1C(=NOCc1csc(NC(=O)C(C)C)n1)c1ccsc1 [Compound 31] | 2.55
Cc1nnnn1C(=NOCc1csc(NC(=O)CCCCl)n1)c1ccsc1 [Compound 34] | 2.67
Cc1nnnn1C(=NOCc1csc(N)n1)c1ccc(Cl)s1 [Compound 100] | 2.02
Cc1ccc(C(=NOCc2csc(NC(=O)C(C)(C)C)n2)n2nnnc2C)s1 [Compound 115] | 3.42
Cc1nnnn1C(=NOCc1csc(NC(=O)C2CC2)n1)c1ccc(-c2ccccc2)s1 [Compound 55] | 3.7
Cc1ccc(C(=NOCc2cccc(NC(=O)OCCc3ccccc3)n2)n2nnnc2C)s1 [Compound 125] | 4.02
COCCOC(=O)Nc1nc(CON=C(c2ccc(C)o2)n2nnnc2C)cs1 [Compound 71] | 2.37
Cc1ccc(C(=NOCc2csc(NC(=O)c3ccccc3)n2)n2nnnc2C)o1 [Compound 63] | 2.96
Cc1nnnn1C(=NOCc1csc(NC(=O)NCCc2ccccc2)n1)c1ccc(Cl)s1 [Compound 104] | 3.64
COCCOC(=O)Nc1cccc(CON=C(c2ccsc2Cl)n2nnnc2C)n1 [Compound 17] | 2.66
Cc1nnnn1C(=NOCc1csc(NC(=O)C2CC2)n1)c1cc(-c2ccccc2)c(Cl)s1 [Compound 77] | 4.03
CCCC(=O)Nc1nc(CON=C(c2ccc(-c3ccc(Cl)c(Cl)c3)o2)n2nnnc2C)cs1 [Compound 82] | 4.11
CCCCCOC(=O)Nc1cccc(CON=C(c2ccc(C)o2)n2nnnc2C)n1 [Compound 74] | 4.04
CCCCCC(=O)Nc1cccc(CON=C(c2ccsc2)n2nnnc2C)n1 [Compound 36] | 3.39
Cc1nnnn1C(=NOCc1csc(NC(=O)CCCc2ccccc2)n1)c1ccsc1 [Compound 45] | 3.49
Cc1nnnn1C(=NOCc1csc(NC(=O)C2CCCC2)n1)c1ccc(Br)s1 [Compound 90] | 3.66
Cc1ccc(C(=NOCc2csc(N)n2)n2nnnc2C)s1 [Compound 113] | 1.8
Cc1nnnn1C(=NOCCc1csc(NC(=O)C(C)(C)C)n1)c1ccsc1 [Compound 51] | 3.19
Cc1ccc(C(=NOCc2csc(NC(=O)C3CCCC3)n2)n2nnnc2C)o1 [Compound 62] | 2.98
Cc1nnnn1C(=NOCc1csc(NC(=O)OCc2ccccc2)n1)c1ccsc1 [Compound 46] | 3.24
Cn1nnnc1C(=NOCc1csc(NC(=O)c2ccccc2)n1)c1csc(-c2ccccc2)n1 [Compound 169] | 3.62
Cc1nnnn1C(=NOCc1csc(NC(=O)Cc2ccccc2)n1)c1ccsc1Cl [Compound 10] | 3.21
COCCOCC(=O)Nc1nc(CON=C(c2ccc(C)s2)n2nnnc2C)cs1 [Compound 129] | 2.6
Cc1nnnn1C(=NOCc1csc(N)n1)c1cc(-c2ccccc2)c(Cl)s1 [Compound 76] | 2.86

Structure (SMILES) | LogP
Cc1nnnn1C(=NOCc1csc(NC(=O)NCc2ccccc2)n1)c1ccc(Cl)s1 [Compound 105] | 3.32
COCCOC(=O)Nc1cccc(CON=C(c2ccc(C)o2)n2nnnc2C)n1 [Compound 73] | 2.53
Cc1ccc(C(=NOCc2csc(NC(=O)C3CC3)n2)n2nnnc2C)s1 [Compound 119] | 2.84
Cc1nnnn1C(=NOCc1csc(NC(=O)CCc2ccccc2)n1)c1ccc(Br)s1 [Compound 89] | 3.76
Cc1nnnn1C(=NOCc1cccc(N)n1)c1ccsc1 [Compound 19] | 1.28
Cc1nnnn1C(=NOCc1csc(NC(=O)CCc2ccccc2)n1)c1ccc(Cl)s1 [Compound 108] | 3.85
Cc1nnnn1C(=NOCc1csc(NC(=O)c2ccccc2)n1)c1ccc(Br)s1 [Compound 91] | 3.61
Cc1nnnn1C(=NOCc1csc(NC(=O)C2CCCC2)n1)c1ccsc1 [Compound 39] | 3.05
Cc1nnnn1C(=NOCc1csc(NC(=O)CCCc2ccccc2)n1)c1ccc(Br)s1 [Compound 88] | 4.04
CCCCCC(=O)Nc1nc(CON=C(c2ccc(-c3ccccc3)o2)n2nnnc2C)cs1 [Compound 133] | 3.8
CCCCCC(=O)Nc1nc(CON=C(c2ccc(C)s2)n2nnnc2C)cs1 [Compound 120] | 3.76
Cc1nnnn1C(=NOCc1csc(NC(=O)NCCc2ccccc2)n1)c1ccsc1 [Compound 24] | 2.86
CCCCCNC(=O)Nc1nc(CON=C(c2ccsc2)n2nnnc2C)cs1 [Compound 22] | 2.99
COCCOCC(=O)Nc1nc(CON=C(c2ccc(C)o2)n2nnnc2C)cs1 [Compound 70] | 2.23
Cc1nnnn1C(=NOCc1csc(NC(=O)CCCCl)n1)c1ccsc1Cl [Compound 5] | 3
Cc1nnnn1C(=NOCc1csc(NC(=O)OCc2ccccc2)n1)c1ccc(Cl)s1 [Compound 109] | 3.93
COCCOCC(=O)Nc1nc(CON=C(c2ccc(Cl)s2)n2nnnc2C)cs1 [Compound 111] | 2.88
Cc1ccc(C(=NOCc2csc(NC(=O)C(C)(C)C)n2)n2nnnc2C)o1 [Compound 59] | 2.95
Cc1ccc(C(=NOCc2csc(NC(=O)Cc3ccccc3)n2)n2nnnc2C)o1 [Compound 65] | 2.92
Cc1ccc(C(=NOCc2csc(NC(=O)COCc3ccccc3)n2)n2nnnc2C)o1 [Compound 67] | 3.12
CCCCCC(=O)Nc1cccc(CON=C(c2ccsc2Cl)n2nnnc2C)n1 [Compound 3] | 3.65
Cc1nnnn1C(=NOCc1csc(NC(=O)Cc2ccccc2)n1)c1ccc(Cl)s1 [Compound 103] | 3.62
Cc1nnnn1C(=NOCc1csc(NC(=O)OCCc2ccccc2)n1)c1ccsc1 [Compound 44] | 3.46
Cc1ccc(C(=NOCc2csc(NC(=O)CCc3ccccc3)n2)n2nnnc2C)s1 [Compound 122] | 3.54
COCCOC(=O)Nc1nc(CON=C(c2ccc(C)s2)n2nnnc2C)cs1 [Compound 130] | 2.76
Cc1nnnn1C(=NOCc1csc(NC(=O)CCCCl)n1)c1ccc(-c2ccccc2)o1 [Compound 136] | 3.39
